Test results: ChEMBL document CHEMBL3243981, “Antileukemic activity of ungeremine and related compounds. Preparation of analogues of ungeremine by a practical photochemical reaction” (J Med Chem, 1978)
Calls of active or inactive are those of the source. The calls are words filed in the database; no cut-off is given here.

Key:
[1] = system: P388; assay: Antileukemic activity against mouse P388 cells allografted in mouse at 25 mg/kg administered daily as single dose relative to control; format: functional
[2] = system: P388; assay: Antileukemic activity against mouse P388 cells allografted in mouse assessed as host survival at 25 mg/kg administered daily as single dose; format: functional, organism-based; set-up: dose 25 mg/kg
[3] = system: P388; assay: Antileukemic activity against mouse P388 cells allografted in mouse assessed as host survival at 50 mg/kg administered daily as single dose; format: functional, organism-based; set-up: dose 50 mg/kg
[4] = system: Mus musculus; assay: Toxicity in mouse allografted with mouse P388 cells assessed as change in body weight at 50 mg/kg administered daily as single dose; format: organism-based; set-up: dose 50 mg/kg; settings: in vivo
[5] = system: P388; assay: Antileukemic activity against mouse P388 cells allografted in mouse assessed as host survival at 12.5 mg/kg administered daily as single dose; format: functional, organism-based; set-up: dose 12.5 mg/kg
[6] = system: P388; assay: Antileukemic activity against mouse P388 cells allografted in mouse at 50 mg/kg administered daily as single dose relative to control; format: functional
[7] = system: Mus musculus; assay: Toxicity in mouse allografted with mouse P388 cells assessed as change in body weight at 25 mg/kg administered daily as single dose; format: organism-based; set-up: dose 25 mg/kg; settings: in vivo
[8] = system: Mus musculus; assay: Toxicity in mouse allografted with mouse P388 cells assessed as change in body weight at 12.5 mg/kg administered daily as single dose; format: organism-based; set-up: dose 12.5 mg/kg; settings: in vivo
[9] = system: P388; assay: Antileukemic activity against mouse P388 cells allografted in mouse at 12.5 mg/kg administered daily as single dose relative to control; format: functional
[10] = system: P388; assay: Antileukemic activity against mouse P388 cells allografted in mouse at 6.25 mg/kg administered daily as single dose relative to control; format: functional
[11] = system: Mus musculus; assay: Toxicity in mouse allografted with mouse P388 cells assessed as change in body weight at 6.25 mg/kg administered daily as single dose; format: organism-based; set-up: dose 6.25 mg/kg; settings: in vivo
[12] = system: P388; assay: Antileukemic activity against mouse P388 cells allografted in mouse assessed as host survival at 3.13 mg/kg administered daily as single dose; format: functional, organism-based; set-up: dose 3.13 mg/kg
[13] = system: P388; assay: Antileukemic activity against mouse P388 cells allografted in mouse at 3.13 mg/kg administered daily as single dose relative to control; format: functional
[14] = system: Mus musculus; assay: Toxicity in mouse allografted with mouse P388 cells assessed as change in body weight at 3.13 mg/kg administered daily as single dose; format: organism-based; set-up: dose 3.13 mg/kg; settings: in vivo
[15] = system: P388; assay: Antileukemic activity against mouse P388 cells allografted in mouse assessed as host survival at 6.25 mg/kg administered daily as single dose; format: functional, organism-based; set-up: dose 6.25 mg/kg
[16] = system: P388; assay: Antileukemic activity against mouse P388 cells allografted in mouse at 18.8 mg/kg administered daily as single dose relative to control; format: functional
[17] = system: Mus musculus; assay: Toxicity in mouse allografted with mouse P388 cells assessed as change in body weight at 18.8 mg/kg administered daily as single dose; format: organism-based; set-up: dose 18.8 mg/kg; settings: in vivo
[18] = system: P388; assay: Antileukemic activity against mouse P388 cells allografted in mouse assessed as host survival at 18.8 mg/kg administered daily as single dose; format: functional, organism-based; set-up: dose 18.8 mg/kg
[19] = system: Mus musculus; assay: Toxicity in mouse allografted with mouse P388 cells assessed as change in body weight at 100 mg/kg administered daily as single dose; format: organism-based; set-up: dose 100 mg/kg; settings: in vivo
[20] = system: P388; assay: Antileukemic activity against mouse P388 cells allografted in mouse at 100 mg/kg administered daily as single dose relative to control; format: functional

Structure (SMILES)	T/C [1]	Survival [2]	Survival [3]	Activity [4]	Survival [5]	T/C [6]	Activity [7]	Activity [8]	T/C [9]	T/C [10]	Activity [11]	Survival [12]	T/C [13]	Activity [14]	Survival [15]	T/C [16]	Activity [17]	Survival [18]	Activity [19]	T/C [20]
COc1cc2c[n+]3c4c(cccc4c2cc1OC)CCC3.[Cl-]	108%	Active	Active	-3.2 g	Active	110%	-0.1 g	-1.4 g	109%	–	–	–	–	–	–	–	–	–	–	–
Oc1cc2c3c(c1)c1cc4c(cc1c[n+]3CC2)OCO4.[Cl-]	164%	–	–	–	Active	–	-3.9 g	-2.4 g	155%	151%	-1.7 g	Active	133%	-0.7 g	Active	–	–	–	–	–
COS(=O)(=O)[O-].C[n+]1cc2ccccc2c2ccccc21	125%	Active	Active	-6.4 g	Active	113%	-3.2 g	-2.2 g	120%	117%	-1 g	Active	108%	-0.8 g	Active	–	–	–	–	–
[Cl-].c1cc2c3c(c1)c1cc4c(cc1c[n+]3CC2)OCO4 [ANHYDROLYCORINIUM CHLORIDE]	153%	Active	–	–	Active	–	-2.9 g	-2.1 g	142%	127%	-1.5 g	–	–	–	Active	–	–	–	–	–
[O-]c1cc2c3c(c1)c1cc4c(cc1c[n+]3CC2)OCO4 [UNGEREMINE]	148%	Active	Active	-3.9 g	Active	152%	-2.1 g	-1.9 g	148%	136%	-0.7 g	Active	133%	-0.7 g	Active	–	–	–	–	–
[Cl-].c1cc2c3c(c1)c1cc4c(cc1c[n+]3CCC2)OCO4	120%	–	inactive	–	Active	–	-3.3 g	-1.9 g	129%	126%	-1.7 g	Active	110%	-0.2 g	Active	132%	-2.4 g	Active	–	–
COc1cc2c[n+]3c4c(cccc4c2cc1OC)CC3.[Cl-]	108%	Active	Active	-1.7 g	–	118%	-0.9 g	–	–	–	–	–	–	–	–	–	–	–	-5.1 g	114%
C[n+]1cc2cc3c(cc2c2ccccc21)OCO3.[Cl-]	151%	Active	–	–	Active	–	-2.5 g	-1 g	135%	129%	-0.9 g	Active	126%	-0.3 g	Active	144%	-1.3 g	Active	–	–
COc1cc2c[n+](C)c3ccccc3c2cc1OC.[Cl-]	121%	Active	Active	-1.6 g	Active	130%	-1 g	-1.1 g	113%	–	–	–	–	–	–	–	–	–	-3.8 g	123%
